Measured values as given in patent US6207393A, “Inhibition of intracellular signal transduction by 14-3-3-binding peptides” (Washington University, priority 1999, dated 2001).
Where a SMILES comes first, the peptide text is derived from it. [ ]: non-standard residue; d: D form. pS = N[C@@H](COP(=O)(O)O)C(=O)O

These compounds were tested against T1, 14-3-3 zeta (Homo sapiens, UniProt P63104) (assay: SPR competitive inhibition of 14-3-3 zeta binding to chip-coupled phosphorylated Raf-259 peptide). Conditions: 14-3-3 zeta 0.5-1.0 μM; competitor 1-50 μM; relative affinity only.
T1 construct: made in house; host or cells: E. coli DH5α (vector pGEX-KT)
T1 sequence (P63104 1-245): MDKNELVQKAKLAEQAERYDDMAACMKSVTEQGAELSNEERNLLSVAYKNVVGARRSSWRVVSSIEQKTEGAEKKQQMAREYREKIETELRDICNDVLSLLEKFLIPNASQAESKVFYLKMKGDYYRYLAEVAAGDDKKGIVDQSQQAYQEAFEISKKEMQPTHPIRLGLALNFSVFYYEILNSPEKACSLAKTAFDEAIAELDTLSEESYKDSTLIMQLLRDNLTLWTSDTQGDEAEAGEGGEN
Protocol: The ability of each peptide to inhibit binding of 14-3-3 zeta to the phosphorylated peptide was then tested in a range of concentrations between 1 and 50 μM. 14-3-3 zeta was prepared according to the methods in Example 1 and binding affinities and specificities were determined using the peptides in Table 2. The 14-3-3 zeta fusion proteins (0.5-1.0 μM) were pre-incubated with a given peptide at concentrations between 1 μM and 50 μM. 14-3-3 zeta was then infused across a sensor chip surface which had been previously coupled with the phosphorylated Raf-259 peptide (SEQ ID NO: 4). IC50 values were determined by plotting the concentration of competitor peptide required to achieve a 50% reduction in equilibrium binding.

IC50	Structure (SMILES)
9 µM	CC(C)C[C@H](N)C(=O)N[C@@H](CO)C(=O)N[C@@H](CCC(N)=O)C(=O)N[C@@H](C)C(=O)N[C@@H](CCC(N)=O)C(=O)N[C@@H](CCCNC(=N)N)C(=O)N[C@@H](CO)C(=O)N[C@H](C(=O)N[C@@H](COP(=O)(O)O)C(=O)N[C@H](C(=O)N1CCC[C@H]1C(=O)N[C@@H](CC(N)=O)C(=O)N[C@H](C(=O)N[C@@H](Cc1c[nH]cn1)C(=O)N[C@@H](C)C(=O)O)C(C)C)[C@@H](C)O)[C@@H](C)O [Peptide 254RA] (H-LSQAQRST[pS]TPNVHA-OH)
11 µM	CC(C)C[C@H](N)C(=O)N[C@@H](CO)C(=O)N[C@@H](CCC(N)=O)C(=O)N[C@@H](C)C(=O)N[C@@H](CCCNC(=N)N)C(=O)N[C@@H](CCC(N)=O)C(=O)N[C@@H](CO)C(=O)N[C@H](C(=O)N[C@@H](COP(=O)(O)O)C(=O)N[C@H](C(=O)N1CCC[C@H]1C(=O)N[C@@H](CC(N)=O)C(=O)N[C@H](C(=O)N[C@@H](Cc1c[nH]cn1)C(=O)N[C@@H](C)C(=O)O)C(C)C)[C@@H](C)O)[C@@H](C)O [Peptide R-4] (H-LSQARQST[pS]TPNVHA-OH)
> 50 µM	CC(C)C[C@H](N)C(=O)N[C@@H](CO)C(=O)N[C@@H](CCC(N)=O)C(=O)N[C@@H](C)C(=O)N[C@@H](CCC(N)=O)C(=O)N[C@@H](CO)C(=O)N[C@@H](CCCNC(=N)N)C(=O)N[C@H](C(=O)N[C@@H](COP(=O)(O)O)C(=O)N[C@H](C(=O)N1CCC[C@H]1C(=O)N[C@@H](CC(N)=O)C(=O)N[C@H](C(=O)N[C@@H](Cc1c[nH]cn1)C(=O)N[C@@H](C)C(=O)O)C(C)C)[C@@H](C)O)[C@@H](C)O [Peptide R-2] (H-LSQAQSRT[pS]TPNVHA-OH)
19 µM	CC(C)C[C@H](N)C(=O)N[C@@H](CO)C(=O)N[C@@H](CCC(N)=O)C(=O)N[C@@H](CCCNC(=N)N)C(=O)N[C@@H](CCC(N)=O)C(=O)N[C@@H](C)C(=O)N[C@@H](CO)C(=O)N[C@H](C(=O)N[C@@H](COP(=O)(O)O)C(=O)N[C@H](C(=O)N1CCC[C@H]1C(=O)N[C@@H](CC(N)=O)C(=O)N[C@H](C(=O)N[C@@H](Cc1c[nH]cn1)C(=O)N[C@@H](C)C(=O)O)C(C)C)[C@@H](C)O)[C@@H](C)O [Peptide 256RA] (H-LSQRQAST[pS]TPNVHA-OH)
